US8519136B2, “Aminopyridine derivatives having aurora a selective inhibitory action” (MSD K.K., priority 2008, dated 2013)
Counter-ions that a name gives are not always drawn.

Test system: Human cervical cancer cells (HeLa S3)
Assay: Effect by combined use of drugs in cells (with docetaxel), WST-8 method
Assay type: cell-based
Conditions: HeLa S3, three days; for inhibition at 0.3 µM: compound 300 nM alone
Description: Fetal calf serum (FCS) was purchased from Moregate Biotech, DMEM medium from Invitrogen Corp., docetaxel (tradename: Taxere) from Sigma-Aldrich, Inc., and WST-8 from Kishida Chemical Co., Ltd.
Human cervical cancer cells (HeLa S3) were obtained from the American Type Culture Collection (ATCC).
Cells were suspended in a DMEM medium containing 10% FCS, and the cell suspension was dispensed to two 96-well plastic plates at a rate of 750 cells/100 microliters per well. The plates were incubated overnight in 5% CO2-95% air at 37° C. A drug was subjected to graded dilution in dimethylsulfoxide and further diluted with DMSO or with a DMEM medium containing 10% FCS and also containing 0.6 nM docetaxel. Then, the dilutions were each dispensed to one of the plates on which cells had been disseminated, at a rate of 100 microliters per well. The final concentration of docetaxel at this stage was 0.3 nM. Also, the concentrations in the case of sole administration of the compound according to the invention were 0.003, 0.01, 0.03, 0.1, 0.3, 1, 3 and 10 μM. The plates were incubated for further three days in 5% CO2-95% air at 37° C. Cell growth after incubation was measured by the WST-8 method (H. Tominaga, et al., Anal. Commun., 36, 47-50 (1999)). Here, the WST-8 method refers to a method in which 20 microliters of a WST-8 reagent solution is added to each well, incubation is conducted at 37° C. for 60 minutes, the plate is stirred, and the amount of formazan produced is measured by a colorimetric method to determine the inhibitory rate of the drug. The growth inhibitory effects of docetaxel and of the compound according to the invention were determined, with the value obtained in sole treatment of DMSO being defined as 0%.

[1] = Homo sapiens, HeLa S3, 72 h, read-out: Cell growth inhibitory effect by sole administration of the compound of Example (%)
[2] = compound 300 nM + docetaxel 0.3 nM

SMILES	inhibition at 0.3 µM [1] [%]	Cell growth inhibitory effect by combined administration of docetaxel and the compound of Example (%) [2] [%]	inhibition at 0.1 µM (Homo sapiens, HeLa S3, 72 h, compound 100 nM alone, read-out: Cell growth inhibitory effect by sole administration of the compound of Example (%)) [%]	Cell growth inhibitory effect by combined administration of docetaxel and the compound of Example (%) (compound 100 nM + docetaxel 0.3 nM)
Cl.O=C(c1cccc(Cl)c1F)N1CCC(O)(Cc2cccc(Nc3cc[nH]n3)n2)CC1 [Example 2, 1-(3-chloro-2-fluorobenzoyl)-4-((6-(1H-pyrazol-3-ylamino)pyridin-2-yl)methyl)piperidin-4-ol hydrochloride]	23.9	90.2	–	–
O=c1[nH]nc(C2(Cc3cccc(Nc4cc[nH]n4)n3)CCN(S(=O)(=O)c3ccccc3C(F)(F)F)CC2)o1 [Example 14, 5-(4-((6-(1H-pyrazol-3-ylamino)pyridin-2-yl)methyl)-1-((2-(trifluoromethyl)phenyl)sulfonyl)piperidin-4-yl)-1,3,4-oxadiazol-2(3H)-one trifluoroacetate]	3.3	80.7	–	–
O=c1[nH]nc(C2(Cc3cccc(Nc4cc[nH]n4)n3)CCN(C(c3cccc(C(F)(F)F)c3)C(F)(F)F)CC2)o1 (stereo not drawn) [Example 19, 5-(4-((6-(1H-pyrazol-3-ylamino)pyridin-2-yl)methyl)-1-(2,2,2-trifluoro-1-(3-(trifluoromethyl)phenyl)ethyl)piperidin-4-yl)-1,3,4-oxadiazol-2(3H)-one trifluoroacetate]	–	–	7.6	86.0
